This note sets out measurements from ChEMBL document CHEMBL4350952, “Evolution of PI3Kγ and δ Inhibitors for Inflammatory and Autoimmune Diseases” (J Med Chem, 2019).

One experiment has as its system U-937. Kind of experiment: cells. It is filed as functional, cell-based. The following applies: Homo sapiens.
The next experiment is filed under the species Homo sapiens. The experiment in a line: Selectivity ratio of IC50 for PI3Kbeta in human U937 cells to IC50 for GST-tagged PI3Kdelta in human U937 cells. The format is cell-based.
For experiment [1], the species on record is Mus musculus. Kind of experiment: Decrease in eosinophil influx reduction in mouse at 1 ug, it relative to control. Set-up: scale not given: the % may be the effect or the level left. It is filed as functional.
Experiment [2] is filed under the species Mus musculus. Kind of experiment: Decrease in eosinophil influx reduction in mouse at 4 ug, it relative to control. It is filed as functional. Details: scale not given: the % may be the effect or the level left.
The species named for experiment [3] is Mus musculus. Kind of experiment: Decrease in eosinophil influx reduction in mouse at 20 ug, it relative to control. It is filed as functional. Set-up: scale not given: the % may be the effect or the level left.
For experiment [4], the species on record is Mus musculus. The experiment in a line: Decrease in neutrophil influx reduction in mouse at 1 ug, it relative to control. The format is functional. Details: scale not given: the % may be the effect or the level left.
Experiment [5] is filed under the species Mus musculus. The experiment in a line: Decrease in neutrophil influx reduction in mouse at 4 ug, it relative to control. The format is functional. Set-up: scale not given: the % may be the effect or the level left.
The species entered for experiment [6] is Mus musculus. The experiment in a line: Decrease in neutrophil influx reduction in mouse at 20 ug, it relative to control. The format is functional. Details: scale not given: the % may be the effect or the level left.
Experiment [7] is filed under the species Mus musculus. Kind of experiment: Decrease in number of neutrophils in mouse BAL at 1 ug, it at 2 hrs post dose relative to control. It is filed as functional. Set-up: scale not given: the % may be the effect or the level left.
The species entered for experiment [8] is Mus musculus. Kind of experiment: Decrease in number of neutrophils in mouse BAL at 4 ug, it at 2 hrs post dose relative to control. The format is functional. Details: scale not given: the % may be the effect or the level left.
The species named for experiment [9] is Mus musculus. The experiment in a line: Decrease in number of neutrophils in mouse BAL at 20 ug, it at 2 hrs post dose relative to control. It is filed as functional. Set-up: scale not given: the % may be the effect or the level left.
The species named for experiment [10] is Mus musculus. Kind of experiment: Decrease in number of neutrophils in mouse BAL at 4 ug, it at 8 hrs post dose relative to control. It is filed as functional. Details: scale not given: the % may be the effect or the level left.
The species named for experiment [11] is Mus musculus. Kind of experiment: Decrease in number of neutrophils in mouse BAL at 4 ug, it at 12 hrs post dose relative to control. The format is functional. Set-up: scale not given: the % may be the effect or the level left.
The species named for experiment [12] is Rattus norvegicus. Kind of experiment: Decrease in number of neutrophils in rat BAL at 5 ug, it at 2 hrs post dose relative to control. It is filed as functional. Details: scale not given: the % may be the effect or the level left.
The species entered for experiment [13] is Rattus norvegicus. The experiment in a line: Decrease in number of neutrophils in rat BAL at 20 ug, it at 2 hrs post dose relative to control. Details: scale not given: the % may be the effect or the level left. It is filed as functional.
Experiment [14] is filed under the species Rattus norvegicus. Kind of experiment: Decrease in number of neutrophils in rat BAL at 100 ug, it at 2 hrs post dose relative to control. It is filed as functional. Set-up: scale not given: the % may be the effect or the level left.
For experiment [15], the species on record is Rattus norvegicus. Kind of experiment: Decrease in number of neutrophils in rat BAL at 20 ug, it at 8 hrs post dose relative to control. It is filed as functional. Details: scale not given: the % may be the effect or the level left.
The species named for experiment [16] is Rattus norvegicus. The experiment in a line: Decrease in number of neutrophils in rat BAL at 20 ug, it at 12 hrs post dose relative to control. It is filed as functional. Details: scale not given: the % may be the effect or the level left.

Description for U-937: Cytotoxicity against in human U937 cells

What is called IC50 is the concentration that gives 50% inhibition. As to `COCCOCCOCC#Cc1cccc2nc(Cn3nc(-c4cc(O)cc(F)c4)c4c(N)ncnc43)n(Cc3ccccc3C(F)(F)F)c(=O)c12`, the IC50 in the experiment with U-937 worked out at 7.4 nM. In addition, in the experiment listed under Homo sapiens, the Ratio IC50 is 2000. Further, the Activity in the experiment listed under Mus musculus [1] is given as 20%; in the experiment filed under Mus musculus [2], 85%; in the experiment listed under Mus musculus [3], 91%; in the experiment listed under Mus musculus [4], 18%; in the experiment filed under Mus musculus [5], 70%; in the experiment listed under Mus musculus [6] it was 80%. The Activity in the experiment filed under Mus musculus [7] worked out at 19%; in the experiment filed under Mus musculus [8] it was 53%; in the experiment listed under Mus musculus [9], 68%; in the experiment listed under Mus musculus [10], 45%; in the experiment filed under Mus musculus [11], 23%; in the experiment listed under Rattus norvegicus [12], 9%. Also, the Activity turned out to be 58% in the experiment filed under Rattus norvegicus [13], 73% in the experiment listed under Rattus norvegicus [14], 33% in the experiment listed under Rattus norvegicus [15] and 10% in the experiment listed under Rattus norvegicus [16].
